According to US20260297031A1, “HYDROXYLAMINE-BASED BCR-ABL1 INHIBITORS FOR TREATMENT OF CANCER” (University of Georgia Research Foundation, Inc., priority 2023, published 2026):

Legend:
Caco-2 cells = test: Caco-2 permeability; settings: Papp (b − a/a − b)
Experimental: Caco-2 Permeability (Independently Performed by Pharmaron Inc., Ningbo, CN)
To each well of the Transwell insert and reservoir were added 50 μL and 25 mL of cell culture medium, respectively. […] Following this, the Caco-2 plate was removed from the incubator and the monolayer washed twice with pre-warmed HBSS (10 mM HEPES, pH 7.4).
To determine the rate of drug transport in the apical to basolateral direction, 125 μL of the working solution of either test compounds or control compounds was added to the Transwell insert (apical compartment) and a 50 μL sample was immediately transported from the apical compartment to 200 μL of acetonitrile containing internal standard (100 nM alprazolam, 200 nM Caffeine and 100 nM tolbutamide) in a new 96-well plate as the initial donor sample (A-B). The sample was then vortexed at 1,000 rpm for 10 min. The receiver plate (basolateral compartment) wells were then filled with 235 μL of transport buffer. To determine the rate of drug transport in the basolateral to apical direction, 285 μL of the working solution of either test compounds or control compounds was added to the receiver plate wells (basolateral compartment) and a 50 μL sample was immediately transferred from the basolateral compartment to 200 μL of acetonitrile containing internal standard in a new 96-well plate as the initial donor sample (B-A). The sample was vortexed at 1,000 rpm for 10 min. The Transwell insert (apical compartment) was then filled with 75 μL of transport buffer and the apical to basolateral direction and the basolateral to apical direction were done at the same time. […] After incubation, 50 μL samples from donor sides (apical compartment for Ap→BI flux, and basolateral compartment for BI→Ap) and receiver sides (basolateral compartment for Ap→BI flux, and apical compartment for BI→Ap) were transferred to wells of a new 96-well plate, followed by the addition of 200 μL acetonitrile containing internal standard. All samples were vortexed for 10 min and then centrifuged at 3,220 g for 40 min. A 150 μL aliquot of the supernatant was then mixed with an appropriate volume of ultra-pure water prior to LC-MS/MS analysis.
To monitor for monolayer integrity, Lucifer yellow leakage was determined after the 2 h transport period. This began by preparing a stock solution of Lucifer yellow in DMSO which was diluted with HBSS (10 mM HEPES, pH 7.4.) to reach a final concentration of 100 μM. To each Transwell insert (apical compartment) was then added 100 μL of the Lucifer yellow solution, followed by filling the wells in the receiver plate (basolateral compartment) with 300 μL of HBSS (10 mM HEPES, pH 7.4).
The efflux ratio was determined using the following equation: […]

[1] = Metabolic stability in human hepatocytes
Experimental: Metabolic Stability in Hepatocytes (Independently Performed by Pharmaron Inc., Ninqbo, CN)
After thawing was complete, hepatocytes were transferred into a 50 mL conical tube containing thawing medium and the tube was then placed into a centrifuge and spun at 100 g for 10 min. […] Using AO/PI staining, cells were counted to determine the viable cell density. […] Subsequently, 2 μL of the 100 μM test compounds or control compound solutions was transferred into the respective wells of the 96-well non-coated plate to start the reaction. […] Aliquots of 100 μL of the supernatant were then diluted by 100 μL of ultra-pure water, and the mixture was analyzed by LC-MS/MS.
All calculations were carried out using Microsoft Excel. Peak areas were determined from extracted ion chromatograms. The in-vitro half-life (t1/2) of parent compound was determined by regression of the percent parent disappearance vs. time curve.

cSRC = cSRC (Homo sapiens, UniProt P12931); test: KinaseProfiler radiometric kinase assay, cSRC wt; format: biochemical; settings: [ATP] = 10 μM; mean of n = 2
[2] = Plasma protein binding by equilibrium dialysis, human plasma; format: in vitro ADME; settings: for % Unbound: human plasma, 360 min, 5 µM
Experimental: Plasma Protein Binding by Equilibrium Dialysis (Independently Performed by Pharmaron Inc., Ninqbo, CN)
Initially, 1 mM solutions of test compounds and the control compound (Ketoconzaole) were prepared in DMSO. After this, dialysis membranes were soaked in ultrapure water for 60 min to separate strips, followed by 20% aq. ethanol for 20 min, and finally in a dialysis buffer for 20 min. […] After this, 597 μL of blank plasma solution followed by 3 μL of the working solutions of either test compounds or control compound were added to a new plastic plate or separate plastic tube and the solutions were vortexed at 1,000 rpm for 2 min. Immediately after this, 50 μL of spiked plasma solution suspension was transferred to a 96-well plate to act as T=0 control. The remaining samples were treated in the same manner, whereby all remaining spiked plasma solutions were added to the incubator for the duration of the study.
Cells were then loaded with 120 μL of the plasma samples and dialyzed against an equal volume of dialysis buffer (PBS). […] At the end of incubation, the lid was removed and 50 μL of post-dialysis samples were removed from both buffer and plasma solution chambers into a separate 96-well plate for analysis. The plasma solutions (50 μL) were then added to the buffer samples along with an equal volume of PBS (50 μL) to the collected plasma solution samples. The plate was shaken at 1,000 rpm for 2 min and 400 μL of acetonitrile containing an appropriate internal standard was added to precipitate protein and release compound. The samples were then vortexed at 1,000 rpm for an additional 10 min followed by centrifugation at 3,220 g for 30 min. Supernatant (250 μL) was then added to a new 96-well plate and centrifuged again at 3,220 g for 30 min and 100 μL of this supernatant was then added to a new 96-well plate for analysis. The samples were analyzed by LC-MS/MS and 100 μL of distilled water was added to each sample prior to analysis.
Concentrations of test compounds and control compound in buffer and plasma solution chambers was determined and percentages of test compounds and control compound bound using the following equations (mean of n=2 replicates): […]

BCR-ABL1 Q252H = target: T1, BCR-ABL1 Q252H (Homo sapiens, UniProt P00519, Q252H); test: KinaseProfiler radiometric kinase assay, BCR-ABL1 Q252H; format: biochemical; settings: [ATP] = 10 μM; mean of n = 2
T1 construct: BCR (fusion partner, as the printed name BCR-ABL1 says)

BCR-ABL1 M351T = target: T2, BCR-ABL1 M351T (Homo sapiens, UniProt P00519, M351T); test: KinaseProfiler radiometric kinase assay, BCR-ABL1 M351T; format: biochemical; settings: [ATP] = 10 μM; mean of n = 2
T2 construct: BCR (fusion partner, as the printed name BCR-ABL1 says)

cSRC, sequence (P12931 whole entry): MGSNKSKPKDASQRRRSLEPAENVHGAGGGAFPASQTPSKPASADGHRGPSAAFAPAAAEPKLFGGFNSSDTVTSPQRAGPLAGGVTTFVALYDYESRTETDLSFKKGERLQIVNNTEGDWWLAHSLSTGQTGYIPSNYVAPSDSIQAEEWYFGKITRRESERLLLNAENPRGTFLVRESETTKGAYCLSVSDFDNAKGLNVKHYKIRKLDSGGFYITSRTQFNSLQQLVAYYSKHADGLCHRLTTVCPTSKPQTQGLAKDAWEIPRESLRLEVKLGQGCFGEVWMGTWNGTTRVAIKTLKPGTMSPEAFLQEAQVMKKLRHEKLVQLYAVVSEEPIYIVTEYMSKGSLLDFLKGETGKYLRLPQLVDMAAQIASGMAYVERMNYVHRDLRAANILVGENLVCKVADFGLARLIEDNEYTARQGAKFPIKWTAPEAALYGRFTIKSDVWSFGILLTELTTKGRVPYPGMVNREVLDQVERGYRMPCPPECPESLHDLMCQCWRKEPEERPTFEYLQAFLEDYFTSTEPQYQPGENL

Compound	Efflux Ratio (Caco-2 cells)	remaining at 0.5 min ([1]; hepatocytes) [%]	remaining at 0.5 h ([1]; hepatocytes) [%]	remaining at 1 h ([1]; hepatocytes) [%]	remaining at 2 h ([1]; hepatocytes) [%]	t1/2 ([1]; hepatocytes) [min]	IC50 (cSRC) [nM]	% Unbound [2] [%]	fraction unbound at 6 h, 5 µM ([2]; plasma, human, 5 μM, read-out: fu, plasma %)	IC50 (BCR-ABL1 Q252H) [nM]	IC50 (BCR-ABL1 M351T) [nM]	stability in hepatocytes, in words [1]
COc1cc(Nc2c(C#N)cnc3cc(OCCON4CCN(C)CC4)c(OC)cc23)c(F)cc1Cl [Compound 15, 4-((4-chloro-2-fluoro-5-methoxyphenyl)amino)-6-methoxy-7-(2-((4-methylpiperazin-1-yl)oxy)ethoxy)quinoline-3-carbonitrile]	6.4	100	52.5	29.4	9.48	34.2	2	5.58	0.056	2	2	
COc1cc2c(Nc3cccc(OC)c3Cl)c(C#N)cnc2cc1OCCON1CCN(C)CC1 [Compound 17, 4-((2-Chloro-3-methoxyphenyl)amino)-6-methoxy-7-(2-((4-methylpiperazin-1-yl)oxy)ethoxy)quinoline-3-carbonitrile]	3.58	100	80.6	60.5	35.8		14	7.37		37	31	good stability in human hepatocytes
COc1cc(Cl)ccc1Nc1c(C#N)cnc2cc(OCCON3CCN(C)CC3)c(OC)cc12 [Compound 20, 4-((4-Chloro-2-methoxyphenyl)amino)-6-methoxy-7-(2-((4-methylpiperazin-1-yl)oxy)ethoxy)quinoline-3-carbonitrile]	6.24	100	63.5	43.3	20.1		11	7.73		10	13	good stability in human hepatocytes
